The target of experiment [1] is T1, Cyclin-dependent kinase 5 activator 1 [99-307] (Homo sapiens, UniProt Q00535).
T1 construct: 99-307
The experiment can be described thus: Kinase Inhibition Assay. Particulars: pH 7.2; 30 °C.

For experiment [2], the target named is Cyclin-dependent kinase 1/G2/mitotic-specific cyclin-B (Marthasterias glacialis, UniProt P15206+Q9DGD3). The experiment can be described thus: Kinase Inhibition Assay. Particulars: pH 7.2; 30 °C.

Each structure is given as a SMILES string.

Consider one compound from BindingDB's records for doi:10.1016/j.bmcl.2003.10.062 (Technische Universitat Braunschweig, 2004).

The IC50 is the midpoint of a concentration-inhibition curve. Read a low IC50 as inhibition by little substance.

T1 sequence (Q15078 99-307): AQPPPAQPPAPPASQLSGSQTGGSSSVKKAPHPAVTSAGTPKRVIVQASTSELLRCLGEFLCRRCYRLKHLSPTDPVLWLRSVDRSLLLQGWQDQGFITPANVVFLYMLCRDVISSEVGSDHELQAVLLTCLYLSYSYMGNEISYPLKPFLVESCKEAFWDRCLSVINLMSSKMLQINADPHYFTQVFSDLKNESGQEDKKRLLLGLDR
T1 sequence (Q00535 whole entry): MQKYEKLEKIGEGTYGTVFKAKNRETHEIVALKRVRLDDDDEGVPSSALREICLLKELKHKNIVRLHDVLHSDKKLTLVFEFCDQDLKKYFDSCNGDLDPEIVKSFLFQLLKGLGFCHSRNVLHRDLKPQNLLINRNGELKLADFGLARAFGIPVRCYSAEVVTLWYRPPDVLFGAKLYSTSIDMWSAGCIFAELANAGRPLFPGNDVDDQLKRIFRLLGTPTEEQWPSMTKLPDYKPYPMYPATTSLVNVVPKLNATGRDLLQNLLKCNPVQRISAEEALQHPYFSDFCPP
Sequence of Cyclin-dependent kinase 1/G2/mitotic-specific cyclin-B (Q9DGD3 whole entry): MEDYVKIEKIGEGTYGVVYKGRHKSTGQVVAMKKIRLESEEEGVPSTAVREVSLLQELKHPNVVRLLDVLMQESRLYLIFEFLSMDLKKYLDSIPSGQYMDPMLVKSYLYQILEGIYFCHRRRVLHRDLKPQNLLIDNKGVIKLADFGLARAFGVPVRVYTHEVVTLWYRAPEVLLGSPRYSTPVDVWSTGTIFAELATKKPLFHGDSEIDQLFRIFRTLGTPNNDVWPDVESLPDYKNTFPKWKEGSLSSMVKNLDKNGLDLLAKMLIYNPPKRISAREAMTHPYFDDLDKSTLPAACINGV
Sequence of Cyclin-dependent kinase 1/G2/mitotic-specific cyclin-B (P15206 whole entry): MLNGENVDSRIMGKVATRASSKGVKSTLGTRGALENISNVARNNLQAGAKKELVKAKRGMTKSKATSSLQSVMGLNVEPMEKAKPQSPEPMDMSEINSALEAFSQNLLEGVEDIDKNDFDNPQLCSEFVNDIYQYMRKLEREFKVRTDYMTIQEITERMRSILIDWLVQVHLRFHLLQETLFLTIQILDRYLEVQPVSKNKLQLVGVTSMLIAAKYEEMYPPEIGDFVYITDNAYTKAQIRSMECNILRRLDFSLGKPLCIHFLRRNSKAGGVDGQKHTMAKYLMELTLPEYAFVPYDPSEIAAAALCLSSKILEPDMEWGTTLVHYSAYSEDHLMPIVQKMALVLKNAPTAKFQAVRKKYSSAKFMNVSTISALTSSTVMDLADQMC

As to `O=Nc1c(C2C(=O)Nc3ccc(I)cc32)[nH]c2ccccc12` (configuration not stated) [3-[(2Z,3E)-3-(hydroxyimino)-2,3-dihydro-1H-indol-2-ylidene]-5-iodo-2,3-dihydro-1H-indol-2-one], the IC50 is 20 nM in experiment [1] and 25 nM in experiment [2].
